According to patent publication US8252737B2, “Antimicrobial peptides and methods of use” (priority 2004, dated 2012):
Converted amounts (≈) assume the structure as drawn. Marks after values point to notes of the source that are not given here.

What was measured:
[1] = tested on: human red blood cells; assay: Hemolysis time study (0-8 hours, 8-500 μg/ml)
Method: The percent hemolysis of cells was determined spectrophotometrically by comparison with the complete hemolysis of cells in water.
[…] Peptide samples were diluted 2 fold in order to determine the concentration that produced no hemolysis. […] Hemoglobin release was determined spectrophotometrically at 562 nm. The hemolytic titer was the highest 2-fold dilution of the peptide that still caused release of hemoglobin from erythrocytes. The control for no release of hemoglobin was a sample of 1% erythrocytes without any peptide added. […] Peptide samples were diluted 2 fold in order to determine the concentration that produced no hemolysis. […] Hemoglobin release was determined spectrophotometrically at 570 nm. The hemolytic titer was the highest 2-fold dilution of the peptide that still caused release of hemoglobin from erythrocytes. The control for no release of hemoglobin was a sample of 1% erythrocytes without any peptide added.

[2] = tested on: Staphylococcus aureus
[3] = tested on: human erythrocytes; assay: Hemolytic activity (MHC), Protocol B, 18 hours; conditions: for Hemolytic activity Fold: fold decrease in hemolytic activity compared to V681, 18 hours; for Hemolytic activity MHC: maximal peptide concentration producing no hemolysis after 18 hours, 37° C.; for MHC (μg/ml) hRBC: maximal peptide concentration with no hemolysis after 18 hours
Method: In order to evaluate the biological activities of the D-enantiomeric peptides, namely D-NAL and D-NKD, the hemolytic activity of the peptides against human erythrocytes was determined as the maximal peptide concentration that produces no hemolysis after 18 hours of incubation at 37° C.
Measurement of Hemolytic Activity—Protocol A: Peptide samples were added to 1% human erythrocytes in phosphate buffered saline (0.08M NaCl; 0.043M Na2PO4; 0.011M KH2PO4) and reactions were incubated at 37° C. for 12 hours in microtiter plates. Peptide samples were diluted 2 fold in order to determine the concentration that produced no hemolysis. […] Hemoglobin release was determined spectrophotometrically at 562 nm. The hemolytic titer was the highest 2-fold dilution of the peptide that still caused release of hemoglobin from erythrocytes. The control for no release of hemoglobin was a sample of 1% erythrocytes without any peptide added. […] Peptide samples were diluted 2 fold in order to determine the concentration that produced no hemolysis. […] Hemoglobin release was determined spectrophotometrically at 570 nm. The hemolytic titer was the highest 2-fold dilution of the peptide that still caused release of hemoglobin from erythrocytes. The control for no release of hemoglobin was a sample of 1% erythrocytes without any peptide added.

[4] = tested on: gram-positive bacteria; conditions: geometric mean of MIC values from all 6 gram-positive strains of Table 12
Method: (§1) Measurement of Antimicrobial Activity—Minimal inhibitory concentrations (MICs) were determined using a standard microtiter dilution method in LB (Luria-Bertani) no-salt medium (10 g of tryptone and 5 g of yeast extract per liter). Briefly, cells were grown overnight at 37° C. in LB and diluted in the same medium. […] Plates were incubated at 37° C. for 24 hours and MICs determined as the lowest peptide concentration that inhibited growth. Alternatively, minimal inhibitory concentrations were determined using a standard microtiter dilution method in a Mueller-Hinton (MH) medium. Briefly, cells were grown overnight at 37° C. in MH broth and diluted in the same medium. […] Plates were incubated at 37° C. for 24 hours and MICs determined as the lowest peptide concentration that inhibited growth. However, for MIC determination of Pseudomonas aeruginosa clinical isolates, brain heart infusion (BH1) medium was used instead of MH broth. In addition, the bacteria were diluted to a final inoculum of 1×10^6 colony-forming units/ml.

[5] = tested on: C. albicans; conditions: fungus
Method: as §1

[6] = tested on: E. faecalis; conditions: wild type strain
Method: as §1

[7] = tested on: Corynebacterium xerosis
[8] = tested on: Staphylococcus epidermidis
[9] = tested on: Bacillus subtilis
[10] = tested on: S. typhimurium C610 abs; conditions: Salmonella typhimurium antibiotic sensitive strain
Method: (§2) The geometric mean MIC values from 6 microbial strains in this table were calculated to provide an overall evaluation of antimicrobial activity against gram-negative bacteria.
as §1

[11] = tested on: P. aeruginosa H187 wt; conditions: for MIC (μg/ml) Pa H188 abs: Pseudomonas aeruginosa antibiotic sensitive strain; for MIC (μg/ml) Pa H187 wt: Pseudomonas aeruginosa wild-type lab strain
Method: as §2, §1

[12] = tested on: E. coli (UB 1005 wt and DC2 abs); conditions: for MIC (μg/ml) E. coli C500 abs: antibiotic sensitive strain; for MIC (μg/ml) E. coli C498 wt: wild-type lab strain
Method: as §2, §1

[13] = Salmonella typhimurium wild-type lab strain
Method: as §2, §1

[14] = tested on: Pseudomonas aeruginosa strains; conditions: for MIC GM: geometric mean of six Pseudomonas aeruginosa clinical isolates; for MIC CP 204: strain CP 204; for MIC M 2: strain M 2; for MIC PA 14: strain PA 14; for MIC PAK: strain PAK; for MIC PAO 1: strain PAO 1; for MIC WR 5: strain WR 5
Method: Pseudomonas aeruginosa strains used in this study are a diverse group of clinical isolates from different places in the world. […] The geometric mean MIC values from six Pseudomonas aeruginosa strains were calculated to provide an overall evaluation of antimicrobial activity of these peptides against Pseudomonas aeruginosa. Fold improvement was calculated by comparing the geometric mean MIC value of each peptide to that of the parent peptide V681.
as §1
For the Leu-substituted peptides, the hemolytic activity against human erythrocytes was determined as the maximal peptide concentration that produces no hemolysis after 18 hours of incubation at 37° C. Antimicrobial activity of the peptides was determined on a diverse group of Pseudomonas aeruginosa clinical isolates. […] The geometric mean MIC values from six Pseudomonas strains in Table 14 were calculated to provide an overall evaluation of antimicrobial activity of the peptides with different hydrophobicities.

[15] = tested on: gram-negative bacteria; assay: MIC, microtiter dilution, Gram-negative bacteria (geometric mean of 6 strains); assay type: cell-based; conditions: geometric mean of MIC values from all 6 Gram-negative strains of Table 11
Method: as §2
In Table 11, geometric mean MIC was calculated to provide an overall view of antimicrobial activity of the peptides against Gram-negative bacteria and was also used to calculate the therapeutic index.
as §1

CC[C@@H](C)[C@@H](NC(=O)[C@@H](C)NC(=O)[C@@H](CCCCN)NC(=O)[C@@H](CC(C)C)NC(=O)[C@@H](C)NC(=O)[C@H](NC(=O)[C@@H](Cc1c[nH]cn1)NC(=O)[C@@H](CC(C)C)NC(=O)[C@H](NC(=O)[C@H](NC(=O)[C@@H](CCCCN)NC(=O)[C@H](C)NC(=O)[C@@H](C)NC(=O)[C@@H](CO)NC(=O)[C@@H](CCCCN)NC(=O)[C@@H](Cc1ccccc1)NC(=O)[C@H](NC(=O)[C@@H](CCCCN)NC(=O)[C@@H](CC(C)C)NC(=O)[C@@H](Cc1ccccc1)NC(=O)[C@@H](CO)NC(=O)[C@@H](CCCCN)NC(=O)[C@@H](Cc1c[nH]c2ccccc12)NC(=O)[C@@H](CCCCN)NC(C)=O)[C@H](C)O)[C@H](C)O)C(C)C)[C@H](C)O)C(=O)N[C@H](CO)C(=O)N[C@H](CO)C(N)=O [D-NAL]
hemolysis of human red blood cells ([1]; 500 μg/ml, after 1 hour incubation): approximately 40%
hemolysis of human red blood cells ([1]; peptide concentration of 32 μg/ml): negligible hemolysis
MIC (μg/ml) S. aureus 622 wt [2]: 3.1 µg/mL (≈ 1.06 µM)
MIC (μg/ml) S. aureus 623 methR [2]: 3.1 µg/mL (≈ 1.06 µM)
Hemolytic activity Fold [3]: 4
Hemolytic activity MHC [3]: 31.3 µg/mL
MHC (μg/ml) hRBC ([3]; Table 11): 31.3 µg/mL
MHC (μg/ml) hRBC ([3]; Table 12): 31.3 µg/mL
MIC (μg/ml) GM [4]: 2.8 µg/mL (≈ 0.954 µM)
MIC (μg/ml) C. albicans [5]: 12.5 µg/mL (≈ 4.26 µM)
MIC (μg/ml) E. faecalis C625 wt [6]: 12.5 µg/mL (≈ 4.26 µM)
MIC (μg/ml) C. xerosis C875 wt [7]: 1.6 µg/mL (≈ 0.545 µM)
MIC (μg/ml) S. epidermidis C621 wt [8]: 1.6 µg/mL (≈ 0.545 µM)
MIC (μg/ml) B. subtilis C971 wt [9]: 1.6 µg/mL (≈ 0.545 µM)
MIC (μg/ml) St C610 abs [10]: 3.1 µg/mL (≈ 1.06 µM)
MIC (μg/ml) Pa H188 abs [11]: 3.1 µg/mL (≈ 1.06 µM)
MIC (μg/ml) Pa H187 wt [11]: 3.1 µg/mL (≈ 1.06 µM)
MIC (μg/ml) E. coli C500 abs [12]: 3.1 µg/mL (≈ 1.06 µM)
MIC (μg/ml) E. coli C498 wt [12]: 3.1 µg/mL (≈ 1.06 µM)
MIC (μg/ml) St C587 wt [13]: 12.5 µg/mL (≈ 4.26 µM)
MIC GM [14]: 13.9 µg/mL (≈ 4.74 µM)
MIC CP 204 [14]: 7.8 µg/mL (≈ 2.66 µM)
MIC M 2 [14]: 15.6 µg/mL (≈ 5.32 µM)
MIC PA 14 [14]: 7.8 µg/mL (≈ 2.66 µM)
MIC PAK [14]: 31.3 µg/mL (≈ 10.7 µM)
MIC PAO 1 [14]: 7.8 µg/mL (≈ 2.66 µM)
MIC WR 5 [14]: 31.3 µg/mL (≈ 10.7 µM)
MIC (μg/ml) GM [15]: 3.9 µg/mL (≈ 1.33 µM)

CC[C@@H](C)[C@@H](NC(=O)[C@@H](C)NC(=O)[C@@H](CCCCN)NC(=O)[C@@H](CC(C)C)NC(=O)[C@@H](C)NC(=O)[C@H](NC(=O)[C@@H](Cc1c[nH]cn1)NC(=O)[C@@H](CC(C)C)NC(=O)[C@H](NC(=O)[C@H](NC(=O)[C@@H](CCCCN)NC(=O)[C@@H](CCCCN)NC(=O)[C@@H](C)NC(=O)[C@@H](CO)NC(=O)[C@@H](CCCCN)NC(=O)[C@@H](Cc1ccccc1)NC(=O)[C@H](NC(=O)[C@@H](CCCCN)NC(=O)[C@@H](CC(C)C)NC(=O)[C@@H](Cc1ccccc1)NC(=O)[C@@H](CO)NC(=O)[C@@H](CCCCN)NC(=O)[C@@H](Cc1c[nH]c2ccccc12)NC(=O)[C@@H](CCCCN)NC(C)=O)[C@H](C)O)[C@H](C)O)C(C)C)[C@H](C)O)C(=O)N[C@H](CO)C(=O)N[C@H](CO)C(N)=O [D-NKD]
MIC (μg/ml) S. aureus 622 wt [2]: 6.3 µg/mL (≈ 2.11 µM)
MIC (μg/ml) S. aureus 623 methR [2]: 6.3 µg/mL (≈ 2.11 µM)
Hemolytic activity Fold [3]: 32
Hemolytic activity MHC [3]: 250.0^h μg/ml
MHC (μg/ml) hRBC ([3]; Table 11): 250.0^h μg/ml
MHC (μg/ml) hRBC ([3]; Table 12): 250.0^h μg/ml
MIC (μg/ml) GM [4]: 4.0 µg/mL (≈ 1.34 µM)
MIC (μg/ml) C. albicans [5]: 25.0 µg/mL (≈ 8.36 µM)
MIC (μg/ml) E. faecalis C625 wt [6]: 12.5 µg/mL (≈ 4.18 µM)
MIC (μg/ml) C. xerosis C875 wt [7]: 1.6 µg/mL (≈ 0.535 µM)
MIC (μg/ml) S. epidermidis C621 wt [8]: 3.1 µg/mL (≈ 1.04 µM)
MIC (μg/ml) B. subtilis C971 wt [9]: 1.6 µg/mL (≈ 0.535 µM)
MIC (μg/ml) St C610 abs [10]: 3.1 µg/mL (≈ 1.04 µM)
MIC (μg/ml) Pa H188 abs [11]: 3.1 µg/mL (≈ 1.04 µM)
MIC (μg/ml) Pa H187 wt [11]: 6.3 µg/mL (≈ 2.11 µM)
MIC (μg/ml) E. coli C500 abs [12]: 3.1 µg/mL (≈ 1.04 µM)
MIC (μg/ml) E. coli C498 wt [12]: 3.1 µg/mL (≈ 1.04 µM)
MIC (μg/ml) St C587 wt [13]: 6.3 µg/mL (≈ 2.11 µM)
MIC GM [14]: 31.2 µg/mL (≈ 10.4 µM)
MIC CP 204 [14]: 15.6 µg/mL (≈ 5.22 µM)
MIC M 2 [14]: 31.3 µg/mL (≈ 10.5 µM)
MIC PA 14 [14]: 15.6 µg/mL (≈ 5.22 µM)
MIC PAK [14]: 125.0 µg/mL (≈ 41.8 µM)
MIC PAO 1 [14]: 15.6 µg/mL (≈ 5.22 µM)
MIC WR 5 [14]: 62.5 µg/mL (≈ 20.9 µM)
MIC (μg/ml) GM [15]: 3.9 µg/mL (≈ 1.3 µM)
